# According to patent publication US11332468B2, “Azaindole derivatives as Rho-kinase inhibitors” (CHIESI FARMACEUTICI S.p.A., priority 2017, dated 2022):
# Experiments:
# Rho kinase 2 (ROCK2) = Rho kinase 2 (ROCK2) (Homo sapiens, UniProt O75116); experiment: In vitro Rho kinase inhibitory activity assay (ADP-Glo), ROCK2; format: biochemical; conditions: Ki by Cheng-Prusoff from IC50; 10 μM ATP; range of activity
# Description: (§1) The effectiveness of compounds of the invention to inhibit Rho kinase activity can be determined in a […] assay containing 40 mM Tris pH7.5, 20 mM MgC2 0.1 mg/ml BSA, 50 μM DTT and 2.5 μM peptide substrate (Myelin Basic Protein) using an ADP-Glo kit (Promega). Compounds were dissolved in DMSO such that the final concentration of DMSO was 1% in the assay. All reactions/incubations are performed at 25° C. Compound (2 ul) and either Rho kinase 1 or 2 (4 μl) were mixed and incubated for 30 mins. Reactions were initiated by addition of ATP (4 μl) such that the final concentration of ATP in the assay was 10 μM. After a 1 hour incubation 10 μl of ADP-Glo Reagent was added and after a further 45 minute incubation 20 ul of Kinase Detection Buffer was added and the mixture incubated for a further 30 minutes. The luminescent signal was measured on a luminometer. […] Compounds were tested in dose-response format and the inhibition of kinase activity was calculated at each concentration of compound. To determine the IC50 (concentration of compound required to inhibit 50% of the enzyme activity) data were fit to a plot of % inhibition vs Log10 compound concentration using a sigmoidal fit with a variable slope and fixing the maximum to 100% and the minimum to 0%. To determine the Ki values the Cheng-Prusoff equation was utilized (Ki=IC50/(1+[S]/Km)
# Rho kinase 1 (ROCK1) = Rho kinase 1 (ROCK1) (Homo sapiens, UniProt Q13464); experiment: In vitro Rho kinase inhibitory activity assay (ADP-Glo), ROCK1; format: biochemical; conditions: Ki by Cheng-Prusoff from IC50; 10 μM ATP; range of activity
# Description: as §1
# Sequence of Rho kinase 2 (ROCK2) (O75116 whole entry): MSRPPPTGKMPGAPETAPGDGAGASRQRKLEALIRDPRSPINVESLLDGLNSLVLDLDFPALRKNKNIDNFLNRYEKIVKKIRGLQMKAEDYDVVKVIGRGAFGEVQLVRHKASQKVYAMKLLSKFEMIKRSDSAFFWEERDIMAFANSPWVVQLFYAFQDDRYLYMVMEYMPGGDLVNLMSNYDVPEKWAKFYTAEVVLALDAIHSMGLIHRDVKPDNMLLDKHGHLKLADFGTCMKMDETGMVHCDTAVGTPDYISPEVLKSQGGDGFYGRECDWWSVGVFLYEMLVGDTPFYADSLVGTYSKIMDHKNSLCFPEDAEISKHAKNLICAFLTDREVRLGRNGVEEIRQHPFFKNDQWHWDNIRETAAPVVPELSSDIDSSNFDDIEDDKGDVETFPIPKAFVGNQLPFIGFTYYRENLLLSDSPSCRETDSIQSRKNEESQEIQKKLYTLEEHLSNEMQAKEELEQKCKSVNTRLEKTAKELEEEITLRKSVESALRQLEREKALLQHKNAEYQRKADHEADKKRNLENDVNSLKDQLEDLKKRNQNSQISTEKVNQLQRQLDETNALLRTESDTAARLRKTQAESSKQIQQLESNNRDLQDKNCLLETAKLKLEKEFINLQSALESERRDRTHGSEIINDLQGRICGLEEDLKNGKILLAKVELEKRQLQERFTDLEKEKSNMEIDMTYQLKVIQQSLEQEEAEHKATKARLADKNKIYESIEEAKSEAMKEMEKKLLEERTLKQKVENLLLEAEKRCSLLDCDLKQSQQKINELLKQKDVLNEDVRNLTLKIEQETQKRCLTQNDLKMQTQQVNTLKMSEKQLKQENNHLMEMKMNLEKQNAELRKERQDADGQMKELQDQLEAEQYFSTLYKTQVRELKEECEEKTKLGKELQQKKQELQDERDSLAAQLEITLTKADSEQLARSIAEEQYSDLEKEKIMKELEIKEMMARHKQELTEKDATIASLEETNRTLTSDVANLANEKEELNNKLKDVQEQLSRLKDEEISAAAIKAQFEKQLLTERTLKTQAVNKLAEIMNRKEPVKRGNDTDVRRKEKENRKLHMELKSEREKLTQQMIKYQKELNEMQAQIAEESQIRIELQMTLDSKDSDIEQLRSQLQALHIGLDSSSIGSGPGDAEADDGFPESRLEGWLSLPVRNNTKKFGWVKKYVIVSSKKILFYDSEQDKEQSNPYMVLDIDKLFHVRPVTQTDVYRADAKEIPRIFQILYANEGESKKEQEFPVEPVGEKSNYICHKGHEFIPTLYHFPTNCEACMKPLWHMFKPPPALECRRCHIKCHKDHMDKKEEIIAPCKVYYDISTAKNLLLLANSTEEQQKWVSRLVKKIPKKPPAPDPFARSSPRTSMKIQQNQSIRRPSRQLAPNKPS
# Sequence of Rho kinase 1 (ROCK1) (Q13464 whole entry): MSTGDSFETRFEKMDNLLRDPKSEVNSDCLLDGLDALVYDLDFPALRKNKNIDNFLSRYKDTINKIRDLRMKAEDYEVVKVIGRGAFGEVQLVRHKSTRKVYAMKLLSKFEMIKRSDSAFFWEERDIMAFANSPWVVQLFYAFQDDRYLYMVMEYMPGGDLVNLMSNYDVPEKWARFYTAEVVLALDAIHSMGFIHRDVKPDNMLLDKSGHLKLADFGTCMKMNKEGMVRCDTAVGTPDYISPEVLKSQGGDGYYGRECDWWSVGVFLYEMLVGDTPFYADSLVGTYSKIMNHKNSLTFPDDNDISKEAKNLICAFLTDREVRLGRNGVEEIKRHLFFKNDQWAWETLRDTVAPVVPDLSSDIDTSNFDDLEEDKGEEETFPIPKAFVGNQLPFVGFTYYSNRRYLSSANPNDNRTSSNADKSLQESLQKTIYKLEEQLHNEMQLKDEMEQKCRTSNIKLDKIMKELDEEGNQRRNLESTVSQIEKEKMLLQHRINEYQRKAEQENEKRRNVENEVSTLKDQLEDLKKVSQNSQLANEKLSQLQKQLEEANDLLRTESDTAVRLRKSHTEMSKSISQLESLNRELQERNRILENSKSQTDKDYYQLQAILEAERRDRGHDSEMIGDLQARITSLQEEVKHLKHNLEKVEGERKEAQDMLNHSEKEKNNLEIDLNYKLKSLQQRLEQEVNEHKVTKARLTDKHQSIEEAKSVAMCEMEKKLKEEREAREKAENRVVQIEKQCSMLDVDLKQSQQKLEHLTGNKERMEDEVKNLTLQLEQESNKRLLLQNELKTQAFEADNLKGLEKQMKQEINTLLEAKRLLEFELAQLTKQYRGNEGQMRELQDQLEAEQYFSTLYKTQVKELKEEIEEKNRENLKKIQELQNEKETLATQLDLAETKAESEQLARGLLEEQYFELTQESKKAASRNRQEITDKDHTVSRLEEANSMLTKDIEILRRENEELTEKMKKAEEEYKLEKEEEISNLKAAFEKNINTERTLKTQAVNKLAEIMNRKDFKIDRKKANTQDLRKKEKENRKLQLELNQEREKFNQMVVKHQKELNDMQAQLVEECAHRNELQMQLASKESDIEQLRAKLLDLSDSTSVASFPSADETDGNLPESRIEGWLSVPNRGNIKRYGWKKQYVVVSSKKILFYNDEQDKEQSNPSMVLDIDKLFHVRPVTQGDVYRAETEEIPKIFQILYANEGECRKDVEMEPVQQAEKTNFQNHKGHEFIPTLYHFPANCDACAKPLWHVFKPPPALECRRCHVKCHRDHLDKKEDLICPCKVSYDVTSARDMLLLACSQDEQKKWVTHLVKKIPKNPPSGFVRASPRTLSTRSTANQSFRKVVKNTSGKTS
Ki (Rho kinase 2 (ROCK2)),Ki (Rho kinase 1 (ROCK1)),SMILES
< 5 nM,5 to 50 nM,"Cc1c[nH]c2nccc(Oc3ccc(C(N)CO)cc3)c12 (stereo not shown) [Example 38, 2-amino-2-(4-((3-methyl-1H-pyrrolo[2,3-b]pyridin-4-yl)oxy)phenyl)ethanol]"
< 5 nM,< 5 nM,"Cc1c[nH]c2nccc(Oc3ccc4c(c3)CN[C@@H](CO)C4)c12 [Example 39, (R)-(7-((3-Methyl-1H-pyrrolo[2,3-b]pyridin-4-yl)oxy)-1,2,3,4-tetrahydroisoquinolin-3-yl)methanol]"
